Here are results for five compounds from publication PMC3707847 (PLoS ONE, 2013).

In experiment [1] the target is T1, recombinant IAV polymerase complex (PA/PB1/PB2) (Influenza A virus, UniProt F6KI70). The class given is biochemical, H3N2 IAV strain (A/chicken/Nanchang/3-120/01). Conditions: for Primer extension products opposite C on template: template t14-1, 100 µM nucleotide plus 25 µM CTP and UTP; for Kapp, single NMP incorporation opposite cytidine (N:C): template t14-1, position +10; for Discrimination (Kapp,NTP/Kapp,GTP), opposite cytidine: template t14-1, relative to natural GTP; for Primer extension products opposite U on template: template t14-2, 100 µM nucleotide; for Discrimination (Kapp,NTP/Kapp,ATP), opposite uridine: template t14-2, relative to natural ATP; for Primer extension products with multiple incorporation sites (UCC at +10 to +12): template t14-3, 100 µM nucleotide.

In experiment [2] the target is T1, recombinant IAV polymerase complex (PA/PB1/PB2). Format: biochemical, H3N2 IAV strain (A/chicken/Nanchang/3-120/01). Conditions: T-705 RTP at 100 µM; for Effect of increasing natural GTP to 300 µM on inhibition of polymerase activity: GTP 300 µM vs low, 3′dGTP data not shown.
The test system of experiment [3] is influenza virus RNP complex (RdRp activity). The class given is biochemical, Influenza virus (A/WSN/33 (H1N1)).

As to `Nc1ncnc2c1ncn2[C@@H]1O[C@H](COP(=O)(O)OP(=O)(O)OP(=O)(O)O)C[C@H]1O` [3′dATP], the “Incorporation by IAVpol in single nucleotide incorporation assay” value in experiment [1] (data not shown) is reported as “not significantly incorporated by IAVpol”.
Turning to `Nc1nc2c(ncn2[C@@H]2O[C@H](COP(=O)(O)OP(=O)(O)OP(=O)(O)O)C[C@H]2O)c(=O)[nH]1` [3′dGTP, 3′-deoxy GTP], in experiment [2], the “Effect of increasing natural GTP to 300 µM on inhibition of polymerase activity” value is listed as “almost completely prevented the inhibition of polymerase activity”. For the same compound, the “Inhibition of radiolabeled viral RNA synthesis by RNP complex” value in experiment [3] was “progressive inhibition of radio-labeled RNA synthesis”. Besides, the “Primer extension products opposite C on template” value in experiment [1] is recorded as “produced only a 10-mer chain termination product”.
On to `Nc1ncnc2c1ncn2[C@@H]1O[C@H](COP(=O)(O)OP(=O)(O)OP(=O)(O)O)[C@@H](O)[C@H]1O` [ATP], for which, in experiment [1] (ATP opposite cytidine, calculated from Kapp), the “Error rate of RNA synthesis by IAV polymerase, A:C mismatch” value is listed as 3.1×10^−6. Besides, in experiment [1], the “Primer extension products opposite C on template” value is given as “mis-incorporation was slightly increased”; the “Kapp, single NMP incorporation opposite cytidine (N:C)” value is recorded as 2,560±720 µM; the “Discrimination (Kapp,NTP/Kapp,GTP), opposite cytidine” value is listed as 330,000 fold; the “Primer extension products opposite U on template” value is given as “converted to 14-mer full length product”. In experiment [1], the “Discrimination (Kapp,NTP/Kapp,ATP), opposite uridine” value is listed as 1 fold and the “Primer extension products with multiple incorporation sites (UCC at +10 to +12)” value is “most of the 9-mer was converted to 10-mer”. In experiment [1] (template t14-2, position +10), the “Kapp for ATP opposite uridine as printed in text” value was 0.022 ± 0.003 µM⁻¹ and the “Kapp, single NMP incorporation opposite uridine (N:U)” value came to 0.022 ± 0.003 µM. In addition, in experiment [1] (template t14-3, 9-mer to +10 position), the “Kapp for ATP incorporation, t14-3 template” value amounted to 0.038 µM.
`Nc1nc2c(ncn2[C@@H]2O[C@H](COP(=O)(O)OP(=O)(O)OP(=O)(O)O)[C@@H](O)[C@H]2O)c(=O)[nH]1` [GTP]: the “Error rate of RNA synthesis by IAV polymerase, G:U mismatch” value in experiment [1] (GTP opposite uridine, calculated from Kapp) is listed as 2.4×10^−3. Also, in experiment [1], the “Primer extension products opposite C on template” value is on record as “converted to the 14-mer full length extension product”; the “Kapp, single NMP incorporation opposite cytidine (N:C)” value is 0.0078 ± 0.003 µM; the “Discrimination (Kapp,NTP/Kapp,GTP), opposite cytidine” value was determined as 1 fold; the “Primer extension products opposite U on template” value was “robust 14-mer RNA product”. Besides, the “Discrimination (Kapp,NTP/Kapp,ATP), opposite uridine” value in experiment [1] is 420 fold. For the same compound, the “Kapp, single NMP incorporation opposite uridine (N:U)” value in experiment [1] (template t14-2, position +10) stood at 9.2 ± 0.54 µM.
With `NC(=O)c1nc(F)cn([C@@H]2O[C@H](COP(=O)(O)OP(=O)(O)OP(=O)(O)O)[C@@H](O)[C@H]2O)c1=O` [T-705 RTP, T-705 ribofuranosyl 5′-triphosphate], the “Effect of increasing natural ATP to 300 µM on inhibition” value in experiment [2] (ATP 300 µM vs 3 µM) is “same loss of inhibition effect”. For the same compound, the “Effect of CTP and UTP at varying concentrations on inhibition potency” value in experiment [2] (CTP or UTP 3 or 300 µM) is on record as “did not change the inhibition potency”. The “Effect of increasing natural GTP to 300 µM on inhibition of polymerase activity” value in experiment [2] was “almost completely prevented the inhibition of polymerase activity”. Also, in experiment [3], the “Inhibition of radiolabeled viral RNA synthesis by RNP complex” value is “inhibited the RdRp activity of influenza virus vRNPs” and the “Potency relative to 3′dGTP against RNP complex” value is listed as “significantly more potent than 3′dGTP”. Also, in experiment [1], the “Primer extension products opposite C on template” value is “conversion of the 9-mer to 14-mer, with an additional 10-mer product”; the “Primer extension products opposite U on template” value was “conversion of the 9-mer to 10- and 14-mer products”; the “Primer extension products with multiple incorporation sites (UCC at +10 to +12)” value is on record as “complete inhibition of further nucleotide incorporation”.
